Here are results for 22 molecules from patent publication US20260200920A1, “SUBSTITUTED AMINOPYRIDINE COMPOUNDS FOR USE AS AKT1 INHIBITORS” (Atavistik Bio, Inc., priority 2023, published 2026).

The target in assay [1] is T1, human recombinant kinase full-length AKT1 E17K (Homo sapiens, UniProt P31749, E17K).
T1 construct: Purified human recombinant kinase full-length AKT1 E17K was expressed in insect cells; made in house; host or cells: insect cells
As to the kind of experiment: AKT1 E17K kinase assay (TR-FRET, Lance). It is filed as biochemical. As to conditions: 0.6 nM AKT1 E17K, 50 nM Ulight-CREBtide, either 50 μM ATP or 2 mM ATP, 60 min at RT. Put shortly:
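Full-length AKT1 E17K from insect cells, PDPK1-activated, at 0.6 nM with 50 nM Ulight-CREBtide and 50 μM or 2 mM ATP, pH 7.5, 1% DMSO. Enzyme and compound preincubated 15 min, reaction run 60 min at RT; Eu-anti-phospho-CREB (Ser133) TR-FRET 665/620 ratio, 10-point curve, IC50 by 4-parameter fit.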
A general note: TR-FRET usually uses a lanthanide donor and a delayed reading to cut background.

Assay [2] has as its target T2, human recombinant kinase full-length wildtype AKT1 (Homo sapiens, UniProt P31749).
T2 construct: Purified human recombinant kinase full-length wildtype AKT1 was expressed in insect cells; made in house; host or cells: insect cells
The experiment in a line: AKT1 kinase assay (wildtype, TR-FRET, Lance). It is filed as biochemical. Conditions: 0.6 nM wildtype AKT1, 50 nM Ulight-CREBtide, either 50 μM ATP or 2 mM ATP, 60 min at RT. Put shortly:
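Insect-cell-expressed full-length human AKT1, PDPK1-activated (0.6 nM), preincubated with compound 15 min at RT, then reacted 60 min at RT with 50 nM ULight-CREBtide and 50 μM or 2 mM ATP (pH 7.5, 1% DMSO). Phospho-CREBtide read by Eu-anti-phospho-Ser133 TR-FRET (665/620 ratio); IC50 from 10-point 4-parameter fit.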

Each structure is given as a SMILES string. Bounds are passed on as bounds.

T2 sequence (P31749 whole entry): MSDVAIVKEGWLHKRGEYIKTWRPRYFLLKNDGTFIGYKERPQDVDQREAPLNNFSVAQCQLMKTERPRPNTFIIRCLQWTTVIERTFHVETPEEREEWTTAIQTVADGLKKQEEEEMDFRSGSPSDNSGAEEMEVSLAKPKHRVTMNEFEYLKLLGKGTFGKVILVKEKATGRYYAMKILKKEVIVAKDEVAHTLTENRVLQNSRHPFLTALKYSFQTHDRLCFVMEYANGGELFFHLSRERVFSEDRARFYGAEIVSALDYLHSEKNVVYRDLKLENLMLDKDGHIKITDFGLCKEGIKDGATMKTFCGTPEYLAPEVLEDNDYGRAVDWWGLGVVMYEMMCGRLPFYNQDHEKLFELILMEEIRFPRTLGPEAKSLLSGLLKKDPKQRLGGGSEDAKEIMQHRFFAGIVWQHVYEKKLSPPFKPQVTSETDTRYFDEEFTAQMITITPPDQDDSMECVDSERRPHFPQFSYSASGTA
T1 sequence (P31749 whole entry E17K): as the sequence (P31749 whole entry) above, with E17K counted along it

In general, IC50 refers to the concentration that gives 50% inhibition. As for `Nc1ncccc1-c1nc2ccc(-c3ccccc3)nc2n1-c1ccc(NC(=O)C2CC3(CC(C(=O)O)C3)C2)c(F)c1` (centres unmarked) [Compound I-47, 6-((4-(2-(2-aminopyridin-3-yl)-5-phenyl-3H-imidazo[4,5-b]pyridin-3-yl)-2-fluorophenyl)carbamoyl)spiro[3.3]heptane-2-carboxylic acid], the IC50 is less than 500 nM in assay [1] and less than 20000 nM in assay [2].

Take `Nc1ncccc1-c1nc2ccc(-c3ccccc3)nc2n1-c1ccc(NC[C@H]2CC[C@@H](C(=O)O)CC2)nc1` [Compound I-114, (1s,4s)-4-(((5-(2-(2-aminopyridin-3-yl)-5-phenyl-3H-imidazo[4,5-b]pyridin-3-yl)pyridin-2-yl)amino)methyl)cyclohexane-1-carboxylic acid]: the half-inhibitory concentration (IC50) in assay [1] was 500 to 2000 nM; in assay [2] it was less than 20000 nM.

On to `CC(C)(C(=O)O)C1CCN(C(=O)c2ccc(-n3c(-c4cccnc4N)nc4ccc(-c5ccccc5)nc43)cc2)C1` (centres unmarked) [Compound I-82, 2-(1-(4-(2-(2-aminopyridin-3-yl)-5-phenyl-3H-imidazo[4,5-b]pyridin-3-yl)benzoyl)pyrrolidin-3-yl)-2-methylpropanoic acid], for which the IC50 in assay [1] was not below 2000 nM; in assay [2], less than 20000 nM.

With `Cc1nc(NC(=O)C2CCC(C)(C(=O)O)CC2)ccc1-n1c(-c2cccnc2N)nc2ccc(-c3ccccc3)nc21` (centres unmarked) [Compound I-128, 4-((5-(2-(2-aminopyridin-3-yl)-5-phenyl-3H-imidazo[4,5-b]pyridin-3-yl)-6-methylpyridin-2-yl)carbamoyl)-1-methylcyclohexane-1-carboxylic acid], the IC50 in assay [1] was 500 to 2000 nM; in assay [2] it was less than 20000 nM.

For `Nc1ncccc1-c1nc2ccc(-c3ccccc3)nc2n1-c1ccc(C2CCN(C(=O)[C@H]3CC[C@H](C(=O)O)CC3)CC2)cc1` [Compound I-198], the IC50 is less than 500 nM in assay [1] and less than 20000 nM in assay [2].

For the molecule `CC1(C)CC(C(=O)O)CCN1Cc1ccc(-n2c(-c3cccnc3N)nc3ccc(-c4ccccc4)nc32)cc1` (centres unmarked) [Compound I-99, 1-(4-(2-(2-aminopyridin-3-yl)-5-phenyl-3H-imidazo[4,5-b]pyridin-3-yl)benzyl)-2,2-dimethylpiperidine-4-carboxylic acid], the IC50 was not below 2000 nM in assay [1] and less than 20000 nM in assay [2].

As to `Nc1ncccc1-c1nc2ccc(-c3ccccc3F)nc2n1-c1ccc([C@H]2CCN(C[C@H]3CC[C@H](C(=O)O)CC3)C2)cc1` (single isomer, unassigned) [Compound I-230], the IC50 in assay [1] is 500 to 2000 nM; in assay [2], less than 20000 nM.

As to `Nc1ncccc1-c1nc2ccc(-c3ccccc3)nc2n1-c1ccc(NC(=O)C2CC3C(C2)C3C(=O)O)nc1` (centres unmarked) [Compound I-48, 3-((5-(2-(2-aminopyridin-3-yl)-5-phenyl-3H-imidazo[4,5-b]pyridin-3-yl)pyridin-2-yl)carbamoyl)bicyclo[3.1.0]hexane-6-carboxylic acid], the IC50 is less than 500 nM in assay [1] and less than 20000 nM in assay [2].

Take `NC(=O)N1CCC(CCc2ccc(-n3c(-c4cccnc4N)nc4ccc(-c5ccccc5)nc43)cc2F)CC1` [Compound I-181]: the IC50 is 500 to 2000 nM in assay [1] and less than 20000 nM in assay [2].

Regarding `CC(c1ccc(-n2c(-c3cccnc3N)nc3ccc(-c4ccccc4)nc32)cc1)N1CCC(C(=O)O)CC1` (centres unmarked) [Compound I-79, 1-(1-(4-(2-(2-aminopyridin-3-yl)-5-phenyl-3H-imidazo[4,5-b]pyridin-3-yl)phenyl)ethyl)piperidine-4-carboxylic acid], the IC50 in assay [1] is not below 2000 nM; in assay [2] it was less than 20000 nM.

With `Nc1ncccc1-c1nc2ccc(-c3ccccc3)nc2n1-c1ccc(C(=O)N2CCCC(C(=O)O)C2)cc1` (centres unmarked) [Compound I-21, 1-(4-(2-(2-aminopyridin-3-yl)-5-phenyl-3H-imidazo[4,5-b]pyridin-3-yl)benzoyl)piperidine-3-carboxylic acid], the IC50 in assay [1] is not below 2000 nM; in assay [2], less than 20000 nM.

On to `Cc1cc(C2CN(CC34CCC(C(=O)O)(CC3)CC4)C2)ccc1-n1c(-c2cccnc2N)nc2ccc(-c3ccccc3F)nc21` [Compound I-200], for which the figures for the IC50 in assay [1] and in assay [2] were 500 to 2000 nM and less than 20000 nM, respectively.

Take `Nc1ncccc1-c1nc2ccc(-c3ccc(F)cc3)nc2n1-c1ccc(NC(=O)[C@H]2CC[C@H](C(=O)O)CC2)nc1` [Compound I-40, (1r,4r)-4-((5-(2-(2-aminopyridin-3-yl)-5-(4-fluorophenyl)-3H-imidazo[4,5-b]pyridin-3-yl)pyridin-2-yl)carbamoyl)cyclohexane-1-carboxylic acid]: the IC50 is less than 500 nM in assay [1] and less than 20000 nM in assay [2].

Turning to `CN(Cc1ccc(-n2c(-c3cccnc3N)nc3ccc(-c4ccccc4)nc32)c(F)c1)[C@H]1CC[C@H](C(=O)O)CC1` [Compound I-164], the IC50 in assay [1] is 500 to 2000 nM; in assay [2], less than 20000 nM.

For the molecule `Cc1nc(NC(=O)[C@H]2CC[C@H](C(=O)O)CC2)ccc1-n1c(-c2cccnc2N)nc2ccc(-c3ccccc3F)nc21` [Compound I-218], the results for the IC50 in assay [1] and in assay [2] were 500 to 2000 nM and less than 20000 nM, respectively.

In the case of `Cc1nc(NC(=O)N2CCC(C(=O)O)CC2)ccc1-n1c(-c2cccnc2N)nc2ccc(-c3ccccc3)nc21` [Compound I-182], the IC50 is less than 500 nM in assay [1] and less than 20000 nM in assay [2].

On to `CC(C)(C)c1ccc2nc(-c3cccnc3N)n(-c3ccc(NC(=O)[C@H]4CC[C@H](C(=O)O)CC4)cc3)c2c1` [Compound I-35, (1r,4r)-4-((4-(2-(2-aminopyridin-3-yl)-6-(tert-butyl)-1H-benzo[d]imidazol-1-yl)phenyl)carbamoyl)cyclohexane-1-carboxylic acid], for which the values for the IC50 in assay [1] and in assay [2] were not below 2000 nM and less than 20000 nM, respectively.

In the case of `Nc1ncccc1-c1nc2ccc(-c3ccccc3)nc2n1-c1ccc(CN2CCC(CC(=O)O)C2)cc1` (centres unmarked) [Compound I-94, 2-(1-(4-(2-(2-aminopyridin-3-yl)-5-phenyl-3H-imidazo[4,5-b]pyridin-3-yl)benzyl)pyrrolidin-3-yl)acetic acid], the IC50 in assay [1] is less than 500 nM; in assay [2], less than 20000 nM.

As to `Nc1ncccc1-c1nc2ccc(-c3ccccc3)nc2n1-c1ccc(NC(=O)C2CCCC(C(=O)O)C2)nc1` (centres unmarked) [Compound I-11, 3-((5-(2-(2-aminopyridin-3-yl)-5-phenyl-3H-imidazo[4,5-b]pyridin-3-yl)pyridin-2-yl)carbamoyl)cyclohexane-1-carboxylic acid], the half-inhibitory concentration (IC50) in assay [1] is less than 500 nM; in assay [2], less than 20000 nM.

As for `Nc1ncccc1-c1nc2ccc(-c3ccccc3F)nc2n1-c1ccc([C@@H]2CCN(C[C@H]3CC[C@@H](C(=O)O)CC3)C2)cc1` (single isomer, unassigned) [Compound I-229], the figures for the IC50 in assay [1] and in assay [2] were 500 to 2000 nM and less than 20000 nM, respectively.

Turning to `Nc1ncccc1-c1nc2ccc(-c3ccccc3)nc2n1-c1ccc(NC2CCC(C(=O)O)C2)nc1` (centres unmarked) [Compound I-13, 3-((5-(2-(2-aminopyridin-3-yl)-5-phenyl-3H-imidazo[4,5-b]pyridin-3-yl)pyridin-2-yl)amino)cyclopentane-1-carboxylic acid], the values for the IC50 in assay [1] and in assay [2] were not below 2000 nM and less than 20000 nM, respectively.

As for `CCN(Cc1ccc(-n2c(-c3cccnc3N)nc3ccc(-c4ccccc4)nc32)cc1)[C@H]1CC[C@H](C(=O)O)CC1` [Compound I-167], the IC50 in assay [1] is 500 to 2000 nM; in assay [2], less than 20000 nM.
